Article PMC7643960 (PLoS ONE, 2020)
Values joined by “and” are separate entries in the source; they are usually repeats but may differ in a detail not shown here. Identical values can stand only once.

Key:
[1] = system: equine sarcoid [ES] cells sRGO2; assay: SRB assay after 96 h; type: cell-based, horse; settings: sRGO2, 96 h of drug exposure
Experimental: (§1) Approximately 7.5 × 10^5 cells (MelDuWi) and 1.0 × 10^6 cells (PriFri2 and sRGO2) were seeded in 25 cm^2 cell culture flasks. […] Following 24 and 48 h of incubation, the cells were harvested by mild trypsinization and washed twice with phosphate-buffered saline (PBS) buffer (containing Mg^2+ and Ca^2+). Cells (1.0 × 10^6) were fixed with ethanol (70%, -20°C, for 24 h). After discarding the ethanol, the cells were washed in 1 mL PBS buffer (containing Mg^2+ and Ca^2+) and were centrifuged. The cell pellet was resuspended in 1 mL of staining PBS buffer (containing Mg^2+ and Ca^2+, 10 μg/mL RNASe [Thermofisher] and 15 μg/mL propidium iodide [Sigma-Aldrich, Munich, Germany]) and was incubated for 30 min at room temperature. Analyses were performed using the Attune® FACS machine (Life Technologies, Darmstadt, Germany) collecting data from the BL-2A channel. Doublet cells were excluded from the measurements by plotting BL-2A against BL-2H. A total of 20,000 events were collected for each cell cycle distribution. Each sample was measured in duplicate.
(§2) S1 Appendix. IC50 values measured by SRB Assay after 96 h. […] Measurements were carried out at least as thrice determination.

[2] = system: equine dermal fibroblasts PriFi2; assay: SRB assay after 96 h; type: cell-based, horse; settings: PriFri2, 96 h of drug exposure
Experimental: as §1, §2

[3] = system: equine malignant melanoma [EMM] cells MelDuWi; assay: SRB assay after 96 h; type: cell-based, horse; settings: 96 h of drug exposure
Experimental: as §1, §2

ES cells sRGO2 [4] = assay: AnnexinV-FITC/propidium iodide staining, flow cytometry; type: cell-based, horse; settings: double IC50 concentration
Experimental: Approximately 7.5 × 10^5 cells (MelDuWi) and 1.0 × 10^6 cells (PriFri2 and sRGO2) were seeded in 25 cm^2 cell culture flasks. […] Following 24 and 48 h of incubation, cells were harvested by mild trypsinization and washed twice with PBS buffer (containing Mg^2+ and Ca^2+). Cells (1.0 × 10^6) were resuspended in AnnexinV binding buffer (BioLegend®, San Diego, US) to a concentration of 1.0 ‧ 10^6 cells/mL. Approximately 100,000 cells were stained with propidium iodide solution ([…], 1 mg/mL) and FITC AnnexinV solution ([…], BioLegend®) for 15 min in the dark at room temperature. After the addition of Annexin V binding buffer ([…]), the suspension was analyzed using the Attune® FACS machine (Life Technologies). After gating for living cells, the data from detectors BL-1A and BL-3A were collected. A total of 20,000 events were collected from each sample and technical duplicates were measured.

[5] = system: human carbonic anhydrase isoenzyme II; set-up: method as in PMID 15664816; settings: cited from earlier work
[6] = system: human carbonic anhydrase isoenzyme I; set-up: method as in PMID 15664816; settings: cited from earlier work
ES cells sRGO2 [7] = assay: cell cycle investigation by flow cytometry (propidium iodide); type: cell-based, horse; settings: double IC50 concentration
Experimental: as §1

EMM cells MelDuWi [8] = assay: as above; type: cell-based, horse; settings: double IC50 concentration
Experimental: as §1

[9] = system: equine dermal fibroblasts PriFri2; assay: as above; type: cell-based, horse; settings: double IC50 concentration
Experimental: as §1

[10] = system: normal human umbilical vein endothelial cells, fibroblasts and keratinocytes; settings: cited from earlier work
EMM cells MelDuWi [11] = settings: read-out: 96-h IC50 value (sulforhodamine B assay); cited from earlier work
[12] = Franz-type diffusion cell (FDC) permeation with HPLC analysis; type: in vitro ADME, horse; settings: any of the FDC experiments
From the text: Two different pharmaceutical formulations were provided by Skinomics GmbH, Halle, Germany, for in vitro permeation studies.
Skin from six horses was used for each FDC experiment. The skin from the lateral thorax was dissected at the Institute of Pathology, University of Veterinary Medicine Hannover, Foundation, Hannover, Germany, after euthanasia of the horses at the Clinic for Horses, University of Veterinary Medicine Hannover, Foundation, for reasons unrelated to the present study. Therefore, a prospective approval of the experiments by an animal research ethics committee was not required. Skin samples were stored at -20°C until use (maximum five months). Further skin sample preparation and diffusion experiments were performed as reported. Skin samples were incubated with test formulation 1 for 24 h and with test formulation 2 for 30 min and 24 h, respectively.
The following slices were 20-μm thick. […] A higher permeation rate of the compound was expected for 24-h experiments and, therefore, the 20-μm slices were stored and analyzed separately up to a depth of 310 μm. The slices were then pooled at 5 × 20 μm until a depth of a maximal 910 μm was reached. The cryostat blade was cleaned with tissues soaked in 80% methanol between each cut. The quantity of NVX-207 was determined by an analytic high-performance liquid chromatography (HPLC) method. […]

[13] = system: different malignancies in five dogs; settings: cited from earlier work
mice = settings: cited from earlier work

Row | Compound | IC50 [1] [µM] | IC50 [2] [µM] | IC50 [3] [µM] | AnnexinV staining: Living cells (ES cells sRGO2 [4]; sRGO2, 24 h) | AnnexinV staining: early apop (ES cells sRGO2 [4]; sRGO2, 24 h) | AnnexinV staining: late apop (ES cells sRGO2 [4]; sRGO2, 24 h) | AnnexinV staining: necrotic (ES cells sRGO2 [4]; sRGO2, 24 h) | AnnexinV staining: Living cells (ES cells sRGO2 [4]; sRGO2, 48 h) | AnnexinV staining: apoptotic cells (early and late) (ES cells sRGO2 [4]; sRGO2, 48 h) | AnnexinV staining: early apop (ES cells sRGO2 [4]; sRGO2, 48 h) | AnnexinV staining: late apop (ES cells sRGO2 [4]; sRGO2, 48 h) | Cell cycle percentage G1/G0 (ES cells sRGO2 [7]; sRGO2, 24 h) | Cell cycle percentage M (ES cells sRGO2 [7]; sRGO2, 24 h) | Cell cycle percentage S (ES cells sRGO2 [7]; sRGO2, 24 h) | Cell cycle percentage SubG1 (ES cells sRGO2 [7]; sRGO2, 24 h) | Cell cycle percentage G1/G0 (ES cells sRGO2 [7]; sRGO2, 48 h) | Cell cycle percentage M (ES cells sRGO2 [7]; sRGO2, 48 h) | Cell cycle percentage S (ES cells sRGO2 [7]; sRGO2, 48 h) | Cell cycle percentage SubG1 (ES cells sRGO2 [7]; sRGO2, 48 h) | Cell cycle percentage G1/G0 (EMM cells MelDuWi [8]; 24 h) | other results
1 | C=C(C)[C@@H]1CC[C@]2(COS(N)(=O)=O)CC[C@]3(C)[C@H](CC[C@@H]4[C@@]5(C)CC[C@H](OS(N)(=O)=O)C(C)(C)[C@@H]5CC[C@]43C)[C@@H]12 [BBS, (3β)-Lup-20(29)-ene-3,28-diol, 3,28-disulfamate] | 24.3 | 19.6 | 14.9 | 41,1% | 19,1% | 38,5% | 1,3% | 8,7% | approximately 90% | 7,5% | 82% and 82.1% | 71,9% | 1,6% | 21,8% | 5,3% | 63,2% | 1,8% | 16,7% | 17,5% | 68,2% | AnnexinV staining: necrotic (ES cells sRGO2 [4]; sRGO2, 48 h): 1,8%; inhibition of carbonic anhydrase II [5]: efficient inhibitor; inhibition of carbonic anhydrase I [6]: efficient inhibitor; Cell cycle percentage M (EMM cells MelDuWi [8]; 24 h): 0,5%; Cell cycle percentage S (EMM cells MelDuWi [8]; 24 h): 23,9%; Cell cycle percentage SubG1 (EMM cells MelDuWi [8]; 24 h): 6,7%; Cell cycle percentage G1/G0 (EMM cells MelDuWi [8]; 48 h): 48,2%; Cell cycle percentage M (EMM cells MelDuWi [8]; 48 h): 0,3%; Cell cycle percentage S (EMM cells MelDuWi [8]; 48 h): 7,6%; Cell cycle percentage G1/G0 ([9]; PriFri2, 24 h): 79,1%; Cell cycle percentage M ([9]; PriFri2, 24 h): 1,0%; Cell cycle percentage S ([9]; PriFri2, 24 h): 12,1%; Cell cycle percentage SubG1 ([9]; PriFri2, 24 h): 7,1%; Cell cycle percentage G1/G0 ([9]; PriFri2, 48 h): 73,7%; Cell cycle percentage M ([9]; PriFri2, 48 h): 0,9%; Cell cycle percentage S ([9]; PriFri2, 48 h): 10,8%; Cell cycle percentage SubG1 ([9]; PriFri2, 48 h): 13,7%
2 | C=C(C)[C@@H]1CC[C@]2(C(=O)OCC(N)(CO)CO)CC[C@]3(C)[C@H](CC[C@@H]4[C@@]5(C)CC[C@H](OC(C)=O)C(C)(C)[C@@H]5CC[C@]43C)[C@@H]12 [NVX-207, 3-acetyl-betulinic acid-2-amino-3-hydroxy-2-hydroxymethyl-propanoate] | 3.1 | 3.8 | 3.7 | 76,6% | 3,7% | 19,1% | 0,5% | 38,5% | about 60% | 12,5% | 47,9% | 76,6% | 6,4% | 15,8% | 0,6% | 64,5% | 3,9% | 13,7% | 17,1% | 77,4% | impact on in vitro survival of normal cells [10]: little impact; IC50 (EMM cells MelDuWi [11]): 5.6 µM; NVX-207 in the acceptor medium [12]: No NVX-207 was detected; tolerability of intralesional treatment [13]: well tolerated; tumor response to intralesional treatment [13]: clinically beneficial tumor response was observed; Cell cycle percentage M (EMM cells MelDuWi [8]; 24 h): 0,8%; Cell cycle percentage S (EMM cells MelDuWi [8]; 24 h): 14,4%; Cell cycle percentage SubG1 (EMM cells MelDuWi [8]; 24 h): 7,1%; Cell cycle percentage G1/G0 (EMM cells MelDuWi [8]; 48 h): 26,8%; Cell cycle percentage M (EMM cells MelDuWi [8]; 48 h): 0,3%; Cell cycle percentage S (EMM cells MelDuWi [8]; 48 h): 12,9%; Cell cycle percentage G1/G0 ([9]; PriFri2, 24 h): 43,1%; Cell cycle percentage M ([9]; PriFri2, 24 h): 1,3%; Cell cycle percentage S ([9]; PriFri2, 24 h): 10,8%; Cell cycle percentage SubG1 ([9]; PriFri2, 24 h): 44,1%; Cell cycle percentage G1/G0 ([9]; PriFri2, 48 h): 14,8%; Cell cycle percentage M ([9]; PriFri2, 48 h): 0,1%; Cell cycle percentage S ([9]; PriFri2, 48 h): 2,9%; Cell cycle percentage SubG1 ([9]; PriFri2, 48 h): 81,9%; side effects after intravenous application (mice): did not lead to any side effects
